Data on 3 molecules can be found in patent US8034572B2, “Receptor for GDNF family ligands” (priority 2006, dated 2011).

Assay [1] concerns the target T1, GDNF (Homo sapiens, UniProt P39905).
T1 construct: purchased PeproTech, Ltd. or R&D Systems, Inc
T1 sequence (P39905 78-211 limits assumed): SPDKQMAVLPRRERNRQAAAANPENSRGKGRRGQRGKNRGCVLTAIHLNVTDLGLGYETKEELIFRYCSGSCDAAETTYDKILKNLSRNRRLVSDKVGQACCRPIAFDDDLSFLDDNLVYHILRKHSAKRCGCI
Nature of the assay: SPR: direct binding of heparin or desulfated heparins to GDNF cuvette. The following applies: apparent Kd from equilibrium response, read-out: Kd1. The procedure:
(§1) Specifically desulfated heparins (Takano et al., 1998) were used to assess the involvement of different sulfate groups in the GDNF-heparin interaction by following direct binding to GDNF cuvette, or by competing out GDNF binding to the heparin-BSA cuvette. Dissociation constants were determined from direct binding using increasing GDNF concentrations and by fitting the data to R=(Rmax*C)/(Kd+C) for heparin. For desulfated heparins, the best fit was achieved using equation R=(Rmax1*C)/(Kd1+C)+(Rmax2*C)/(Kd2+C), where Kd1 and Kd2 are apparent dissociation constants derived for two heparin sites of different affinities with maximum equilibrium response Rmax1 and Rmax2, respectively.

Assay [2] addresses T1, GDNF. Nature of the assay: SPR: competition of GDNF binding to heparin-BSA cuvette by heparin and desulfated heparins. The settings on record: competing out GDNF binding to heparin-BSA cuvette. On the procedure: as §1
For orientation: SPR reads the build-up and loss of mass on a sensor chip optically.

The target of a further assay is T2, GDNF-syndecan-3 complex (UniProt P33671+P39905).
T2 construct: the rat glioma C6 cell line, which expresses syndecan-3; endogenous in cells; host or cells: rat glioma C6 cells (syndecan-3); GDNF purchased from PeproTech or R&D Systems and iodinated
Nature of the assay: Chemical cross-linking of ^125I-GDNF to C6 cells and immunoprecipitation with anti-syndecan-3. The format is cell-based, rat. The settings on record: heparin 1 μg/ml; HB-GAM 150-fold molar excess; added with ^125I-GDNF. On the procedure: Glioma C6 cells were plated on 6-well plates and grown to 70% confluency. Cells were incubated with 1 nM ^125I-GDNF for 2 hours in binding buffer (Dulbecco's modified Eagle's medium, 0.2% BSA and 15 mM Hepes, pH 7.2) on ice. Unbound ligand was removed by washing three times with ice-cold PBS. The chemical cross-linker ethyl-dimethyl-aminopropyl-carbodimide (EDAC) supplemented with N-hydroxysuccinimide (NHS) (Sigma) was incubated with cells for 20 min at room temperature in PBS. The reaction was quenched with TBS for 15 min and cells were lysed in lysis buffer (TBS, 1% Triton X-100, 1% NP-40, 2 mM EDTA, 1 mM PMSF and Complete protease inhibitor mixture from Roche Molecular Biochemicals). Cell lysates were immunoprecipitated with anti-syndecan-3 antibodies (Nolo et al., 1995) and resolved on 7.5% SDS-PAGE. Autoradiography was performed with BAS1500 (Fuji). For heparinase III or PI-PLC treatment cells were incubated with 10 mU/ml heparinase III or with 1 U/ml PI-PLC, respectively for one hour at 37° C., 5% CO2 before ^125I-GDNF addition.

The conditions of assay [3]: coinfusion into rat striatum; cited from earlier work.
In assay [4] the target is T1, GDNF. Nature of the assay: Scintillation proximity assay: tritium labeled heparin binding to and displacement from GDNF. The settings on record: FIG. 11. The source says: The scintillation proximity assay (SPA) technology (Amersham) was used to assay the ability of the low molecular weight molecule (namely low molecular weight heparin from Sigma) to displace tritium labeled heparin from GDNF.
Small beads filled with scintillation liquid are covalently linked with anti-mouse antibodies that can capture mouse anti-FLAG-tag antibodies. In turn, GDNF that we produced by ourselves has a FLAG-tag on its N-terminus. Thus, GDNF is in close proximity to the scintillation beads. The tritium labeled high molecular weight heparin (a kind gift from Ulf Lindahl, Sweden) is administered in the surrounding solution. Labeled heparin binds GDNF, which is sitting on scintillation beads and induces light that is detected. […] This assay can be easily adopted to high-throughput format.
To test the ability of small molecules to displace heparin or heparan sulfates from GDNF they are simply mixed at different concentrations with the labeled heparin and the decrease of the signal is monitored. It does positively correlate with the concentration of the cold heparin. We did it in our study with low molecular weight heparin and got IC50 of approximately 10 nM, which correlates with other binding data (FIG. 11).
(In a scintillation proximity assay essentially only radioactivity close to the scintillant gives light.)

T2 sequence (P33671 45-442, one chain of several): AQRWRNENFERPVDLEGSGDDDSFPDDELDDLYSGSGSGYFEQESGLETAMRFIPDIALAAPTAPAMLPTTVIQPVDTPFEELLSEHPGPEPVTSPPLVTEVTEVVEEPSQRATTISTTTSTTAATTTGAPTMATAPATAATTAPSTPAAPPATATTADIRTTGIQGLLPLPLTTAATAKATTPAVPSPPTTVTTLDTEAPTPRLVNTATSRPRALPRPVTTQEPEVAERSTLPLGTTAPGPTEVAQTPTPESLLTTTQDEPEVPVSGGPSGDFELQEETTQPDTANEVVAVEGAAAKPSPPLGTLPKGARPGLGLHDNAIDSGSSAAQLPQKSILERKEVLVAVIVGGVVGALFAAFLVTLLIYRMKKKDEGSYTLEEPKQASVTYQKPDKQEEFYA

The IC50 is the concentration that gives 50% inhibition. Read a low IC50 as greater potency. As for heparin, the Kd on GDNF [1] was 9.5 nM. Besides, the “IC50” value at GDNF [2] turned out to be 0.06 ng/mL. For the same molecule, the “effect on ^125I-GDNF binding to syndecan-3 on C6 cells” value on GDNF-syndecan-3 complex is on record as “abolished ^125I-GDNF binding to syndecan-3 almost completely”. For the same molecule, the “biodistribution of coinfused GDNF, NRTN or ARTN” value in assay [3] is reported as “markedly increased their biodistribution”.

On to low molecular weight heparin, for which, on GDNF [4], the IC50 was about 10 nM.

B1: HB-GAM: ECM molecule, another syndecan-3-specific ligand (protein)
chain: GKKEKPEKKVKKSDCGEWQWSVCVPTSGDCGLGTREGTRTGAECKQTMKTQRCKIPCNWKKQFGAECKYQFQAWGECDLNTALKTRTGSLKRALHNADCQKTVTISKPCGKLTKPKPQAESKKKKKEGKKQEKMLD
In the case of B1, in the assay with GDNF-syndecan-3 complex, the “effect on ^125I-GDNF binding to syndecan-3 on C6 cells” value is recorded as “displaced”.
